Numbered stars: 1 amine (or outer) side, 2 acyl side, 3 side chain; on linkers, the order of the positions; unused ones are H or OH. Bridge positions count the residues as written; N and C are the ends. Square brackets hold non-standard residues; d marks the D form. Side chains are listed from the residue outwards. Peptide text beside a SMILES is read from it. * marks the point of attachment. X1 = O=C(O)CN1CCN(CC(=O)O)CCN(CC(=O)NCCCC[C@@H](NC(=O)CCOCCOCCOCCOCCOCCOCCOCCOCCOCCOCCOCCOCCNC(=O)Cc2ccc(Br)cc2)C(=O)NCCOCCOCCOCCOCCOCCOCCOCCOCC(=O)*)CCN(CC(=O)O)CC1; PEG24 = NCCOCCOCCOCCOCCOCCOCCOCCOCCOCCOCCOCCOCCOCCOCCOCCOCCOCCOCCOCCOCCOCCOCCOCCOCCC(=O)O; Ala(piperidin-4-yl) = O=C([C@H](CC1CCN([*:3])CC1)N[*:1])[*:2]; DOTA = O=C(O)CN1CCN(CC(=O)O)CCN(CC(=O)*)CCN(CC(=O)O)CC1; γGlu = O=C(O)[C@H](CCC(=O)[*:2])N[*:1]; 2Nal = N[C@@H](Cc1ccc2ccccc2c1)C(=O)O; Palmitoyl = CCCCCCCCCCCCCCCC(=O)*; 3Pal = N[C@@H](Cc1cccnc1)C(=O)O; Chg = N[C@H](C(=O)O)C1CCCCC1; NMeNle = CCCC[C@H](NC)C(=O)O; Ahx = NCCCCCC(=O)O
Tests used:
[1] = tested on: SHP-77 tumors; test: Ex vivo biodistribution of radiolabeled peptides in nude mice bearing SHP-77 tumors; settings: [177Lu]Lu labelling, nude mice bearing SHP-77 tumors (n = 3), 24 hours post-injection
Method: Mice were intravenously injected (via the lateral tail vein) with a bolus dose of the radiolabeled peptides for ex vivo biodistribution studies when tumor volumes were in range of 200-400 mm^3 for xenograft mice and when age of the mice was 5-7 weeks for tumor naïve mice studies. To assess the amount of radionuclide injected into individual mice the syringe was assayed in a dose calibrator before and after injection for [^177Lu]Lu-peptide.
Mice were euthanized at pre-determined time points and selected tissues were resected and collected into pre-weighed tubes. The tubes were then reweighed post resection, the difference giving the weight of each tissue. Radioactivity in each tissue was measured using a gamma counter. Counts were decay corrected to the time of injection and percentage of injected activity per gram (% IA/g) was calculated for each tissue based on the injected activity into each individual mouse. Injected activity was converted to counts based on the sensitivity of the gamma counter. The counts in tissue were then converted to the percentage of injected activity and this was divided by the mass of tissue to give % IA/g.

[2] = molecular target: T1, human DLL3 (Homo sapiens, UniProt Q9NYJ7); test: Affinity determination by Surface Plasmon Resonance (SPR); assay type: binding; settings: 25° C., biotinylated human DLL3 immobilized on streptavidin sensor chip, 1:1 binding model; read-out: SPR KD
T1 sequence (Q9NYJ7 27-618): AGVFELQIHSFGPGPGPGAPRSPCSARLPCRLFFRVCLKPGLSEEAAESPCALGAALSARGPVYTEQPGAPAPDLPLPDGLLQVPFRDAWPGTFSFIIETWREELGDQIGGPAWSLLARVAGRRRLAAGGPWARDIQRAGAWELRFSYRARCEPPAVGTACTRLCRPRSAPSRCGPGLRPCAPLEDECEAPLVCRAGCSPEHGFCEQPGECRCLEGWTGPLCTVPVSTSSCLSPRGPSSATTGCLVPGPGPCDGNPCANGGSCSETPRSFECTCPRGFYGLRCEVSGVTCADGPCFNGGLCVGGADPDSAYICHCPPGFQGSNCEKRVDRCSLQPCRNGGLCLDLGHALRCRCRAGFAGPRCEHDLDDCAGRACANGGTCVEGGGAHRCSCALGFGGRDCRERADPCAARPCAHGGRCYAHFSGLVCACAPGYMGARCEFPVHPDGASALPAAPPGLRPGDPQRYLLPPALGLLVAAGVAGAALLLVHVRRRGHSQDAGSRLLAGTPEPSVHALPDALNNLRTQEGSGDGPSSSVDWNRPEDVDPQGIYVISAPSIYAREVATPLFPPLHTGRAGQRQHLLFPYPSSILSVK
Outline: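 Kinetic and affinity constants were derived by fitting sensorgrams to a 1:1 binding model. Graded compound concentrations flowed at 100 μL/minute in 20 mM phosphate running buffer with 2% DMSO over streptavidin-immobilized biotinylated human DLL3, reference-subtracted.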

Row | Compound | kidney uptake (% IA/g) [1] | tumor uptake (% IA/g) [1] | Kd [2]
1 | CC[C@H](C)[C@H](NC(=O)[C@@H](NC(=O)[C@H](Cc1c[nH]c2ccccc12)NC(C)=O)[C@@H](C)O)C(=O)N[C@H]1CSSC[C@@H](C(=O)N[C@@H](Cc2c[nH]c3ccccc23)C(=O)N2CCC[C@H]2C(=O)N[C@H](CCCCNC(=O)CCCCCNC(=O)CN2CCN(CC(=O)O)CCN(CC(=O)O)CCN(CC(=O)O)CC2)C(N)=O)NC(=O)[C@H](CC(=O)O)NC(=O)[C@H](Cc2cnc[nH]2)NC(=O)[C@H](Cc2c[nH]c3ccccc23)NC(=O)[C@H](CC(N)=O)NC(=O)[C@H](CC(N)=O)NC1=O [compound 47, Ac-W-T-I-C(3)-N-N-W-H-D-C(3)-W-P-(D-Lys)-Ahx-DOTA-NH2] (Ac-WTICNNWHDCWP[dK]([Ahx-DOTA])-NH2; disulfide 4-10) | D (% IA/g > 10 in kidney) | A (0 < % IA/g ≤ 5 in tumor) | 1 to 10 nM
2 | CC[C@H](C)[C@H](NC(=O)[C@@H](NC(=O)[C@H](Cc1c[nH]c2ccccc12)NC(C)=O)[C@@H](C)O)C(=O)N[C@H]1CSSC[C@@H](C(=O)N[C@@H](Cc2c[nH]c3ccccc23)C(=O)N2CCC[C@H]2C(=O)N[C@H](CCCCNC(=O)COCCOCCOCCOCCOCCOCCOCCOCCNC(=O)[C@@H](CCCCNC(=O)CN2CCN(CC(=O)O)CCN(CC(=O)O)CCN(CC(=O)O)CC2)NC(=O)CCOCCOCCOCCOCCOCCOCCOCCOCCOCCOCCOCCOCCNC(=O)Cc2ccc(Br)cc2)C(N)=O)NC(=O)[C@H](CC(=O)O)NC(=O)[C@H](Cc2c[nH]cn2)NC(=O)[C@H](Cc2ccc3ccccc3c2)NC(=O)[C@H](CC(N)=O)NC(=O)[C@H](CC(N)=O)NC1=O [compound 252, Ac-W-T-I-C(3)-N-N-(2Nal)-H-D-C(3)-W-P-{D-Lys[PEG8-D-Lys(DOTA)-PEG12-COCH2Ph-4Br]}-NH2] (Ac-WTICNN[2Nal]HDCWP[dK](X1)-NH2; disulfide 4-10) | D (% IA/g > 10 in kidney) | A (0 < % IA/g ≤ 5 in tumor) | –
3 | CC[C@H](C)[C@H](NC(=O)[C@@H](NC(=O)[C@H](Cc1c[nH]c2ccccc12)NC(C)=O)[C@@H](C)O)C(=O)N[C@H]1CSSC[C@@H](C(=O)N[C@@H](Cc2c[nH]c3ccccc23)C(=O)N2CCC[C@H]2C(=O)N[C@H](CCCCNC(=O)CN2CCN(CC(=O)O)CCN(CC(=O)O)CCN(CC(=O)O)CC2)C(N)=O)NC(=O)[C@H](CC(=O)O)NC(=O)[C@H](Cc2cnc[nH]2)NC(=O)[C@H](Cc2ccc3ccccc3c2)NC(=O)[C@H](Cc2cccnc2)NC(=O)[C@H](CC(N)=O)NC1=O [compound 265, Ac-W-T-I-C(3)-N-(3Pya)-(2Nal)-H-D-C(3)-W-P-[D-Lys(DOTA)]-NH2] (Ac-WTICN[3Pal][2Nal]HDCWP[dK](DOTA)-NH2; disulfide 4-10) | D (% IA/g > 10 in kidney) | A (0 < % IA/g ≤ 5 in tumor) | < 1 nM
4 | CC(=O)N[C@@H](Cc1c[nH]c2ccccc12)C(=O)N[C@H](C(=O)N[C@H](C(=O)N[C@H]1CSSC[C@@H](C(=O)N[C@@H](Cc2c[nH]c3ccccc23)C(=O)N2CCC[C@H]2C(=O)N[C@H](CCCCNC(=O)CN2CCN(CC(=O)O)CCN(CC(=O)O)CCN(CC(=O)O)CC2)C(N)=O)NC(=O)[C@H](CC(=O)O)NC(=O)[C@H](Cc2cnc[nH]2)NC(=O)[C@H](Cc2ccc3ccccc3c2)NC(=O)[C@H](CC(N)=O)NC(=O)[C@H](CC2CCNCC2)NC1=O)C1CCCCC1)[C@@H](C)O [compound 280, Ac-W-T-(Chg)-C(3)-[3-(4-piperidinyl)-Ala]-N-(2Nal)-H-D-C(3)-W-P-[D-Lys(DOTA)]-NH2] (Ac-WT[Chg]C[Ala(piperidin-4-yl)]N[2Nal]HDCWP[dK](DOTA)-NH2; disulfide 4-10) | C (0 < % IA/g ≤ 10 in kidney) | A (0 < % IA/g ≤ 5 in tumor) | < 1 nM
5 | CCCCCCCCCCCCCCCC(=O)N[C@@H](CCC(=O)NCCOCCOCCOCCOCCOCCOCCOCCOCCOCCOCCOCCOCCOCCOCCOCCOCCOCCOCCOCCOCCOCCOCCOCCOCCC(=O)NCCCC[C@@H]1NC(=O)[C@H](Cc2ccc3ccccc3c2)NC(=O)[C@H](CC(N)=O)NC(=O)[C@H](CC2CCNCC2)NC(=O)[C@@H](NC(=O)[C@@H](NC(=O)[C@@H](NC(=O)[C@H](Cc2c[nH]c3ccccc23)NC(C)=O)[C@@H](C)O)C2CCCCC2)CSSC[C@@H](C(=O)N[C@@H](Cc2c[nH]c3ccccc23)C(=O)N2CCC[C@H]2C(=O)N[C@H](CCCCNC(=O)CN2CCN(CC(=O)O)CCN(CC(=O)O)CCN(CC(=O)O)CC2)C(N)=O)NC(=O)[C@H](CC(=O)O)NC1=O)C(=O)O [compound 426, Ac-WT-(Chg)-C(3)-[3-(4-piperidinyl)-Ala]-N-(2Nal)-Lys(PEG24-[gE(C16)]-OH)-D-C(3)-W-P-[D-Lys(DOTA)]-NH2] (Ac-WT[Chg]C[Ala(piperidin-4-yl)]N[2Nal]K([PEG24-γGlu-Palmitoyl])DCWP[dK](DOTA)-NH2; disulfide 4-10) | – | – | 1 to 10 nM
6 | CCCCCCCCCCCCCCCC(=O)N[C@@H](CCC(=O)NCCOCCOCCOCCOCCOCCOCCOCCOCCOCCOCCOCCOCCOCCOCCOCCOCCOCCOCCOCCOCCOCCOCCOCCOCCC(=O)NCCCC[C@@H]1NC(=O)[C@H](Cc2ccc3ccccc3c2)NC(=O)[C@H](CC(N)=O)NC(=O)[C@H](CC2CCNCC2)NC(=O)[C@@H](NC(=O)[C@H](CCCC)N(C)C(=O)[C@@H](NC(=O)[C@H](Cc2c[nH]c3ccccc23)NC(C)=O)[C@@H](C)O)CSSC[C@@H](C(=O)N[C@@H](Cc2c[nH]c3ccccc23)C(=O)N2CCC[C@H]2C(=O)N[C@H](CCCCNC(=O)CN2CCN(CC(=O)O)CCN(CC(=O)O)CCN(CC(=O)O)CC2)C(N)=O)NC(=O)[C@H](CC(=O)O)NC1=O)C(=O)O [compound 427, Ac-W-T-(NMe-Nle)-C(3)-[3-(4-piperidinyl)-Ala]-N-(2Nal)-Lys(PEG24-[gE(C16)]-OH)-D-C(3)-W-P-[D-Lys(DOTA)]-NH2] (Ac-WT[NMeNle]C[Ala(piperidin-4-yl)]N[2Nal]K([PEG24-γGlu-Palmitoyl])DCWP[dK](DOTA)-NH2; disulfide 4-10) | – | – | 10 to 100 nM
7 | CC[C@H](C)[C@H](NC(=O)[C@@H](NC(=O)[C@H](Cc1c[nH]c2ccccc12)NC(C)=O)[C@@H](C)O)C(=O)N[C@H]1CSSC[C@@H](C(=O)N[C@@H](Cc2c[nH]c3ccccc23)C(=O)N2CCC[C@H]2C(=O)N[C@H](CCCCNC(=O)CN2CCN(CC(=O)O)CCN(CC(=O)O)CCN(CC(=O)O)CC2)C(N)=O)NC(=O)[C@H](CC(=O)O)NC(=O)[C@H](Cc2cnc[nH]2)NC(=O)[C@H](Cc2ccc3ccccc3c2)NC(=O)[C@H](CC(N)=O)NC(=O)[C@H](CCCCN)NC1=O [compound 451, Ac-W-T-I-C(3)-K-N-(2Nal)-H-D-C(3)-W-P-[D-Lys(DOTA)]-CONH2] (Ac-WTICKN[2Nal]HDCWP[dK](DOTA)-NH2; disulfide 4-10) | D (% IA/g > 10 in kidney) | A (0 < % IA/g ≤ 5 in tumor) | –
8 | Ac-W-T-I-C(3)-N-N-(2Nal)-(4Pya)-D-C(3)-W-P-[D-Lys(DOTA)]-NH2 [compound 367] | – | – | < 1 nM
